From the supplement of paper PMC10307832

Legend:
Test in all cases: relative viability (nuclei count vs DMSO), 5 days (fraction); higher = more cells survive
NCI-H1437 = system: NCI-H1437
Method in brief: (§1)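 Each reported value is a median over duplicate plates. It expresses relative viability: treated-well nuclei count divided by vehicle-well nuclei count. Lung cancer cell lines in 1536-well plates were dosed by pin tool a day after seeding, alone with one drug or with a fixed anchor-drug dose plus five library-drug doses (not always all listed) in √10 steps, and nuclei were counted after 5 days.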

NCI-H1623 = system: NCI-H1623
Method in brief: as §1

NCI-H2085 = system: NCI-H2085
Method in brief: as §1

HCC-366 = system: HCC-366
Method in brief: as §1

LOU-NH91 = system: LOU-NH91
Method in brief: as §1

NCI-H3122 = system: NCI-H3122
Method in brief: as §1

Q: O=c1cc(N2CCOCC2)oc2c(-c3cccc4c3sc3ccccc34)cccc12 + Cc1nc(Nc2ncc(C(=O)Nc3c(C)cccc3Cl)s2)cc(N2CCN(CCO)CC2)n1 [Dasatinib] (partner 0.075 µM) was tested. Which relative viability (NCI-H1437; first compound 0.01 µM) did it give?
A: Its relative viability is 0.337.

Q: And the relative viability (NCI-H1437; first compound 0.03162 µM)?
A: The relative viability was 0.329.

Q: And the relative viability (NCI-H1437; first compound 0.1 µM)?
A: The relative viability was 0.492.

Q: What about the relative viability (NCI-H1437; first compound 0.3162 µM) of the same compound?
A: Its relative viability is 0.509.

Q: What about the relative viability (NCI-H1437; first compound 1 µM) of the same compound?
A: The relative viability was 0.344.

Q: What about the relative viability (NCI-H1623; first compound 0.01 µM) of the same compound?
A: Its relative viability is 0.456.

Q: What about the relative viability (NCI-H1623; first compound 0.03162 µM) of the same compound?
A: The relative viability was 0.517.

Q: What about the relative viability (NCI-H1623; first compound 0.1 µM) of the same compound?
A: Its relative viability is 0.402.

Q: What about the relative viability (NCI-H1623; first compound 0.3162 µM) of the same compound?
A: Its relative viability is 0.5.

Q: And the relative viability (NCI-H1623; first compound 1 µM)?
A: Its relative viability is 0.438.

Q: What about the relative viability (NCI-H2085; first compound 0.01 µM) of the same compound?
A: Its relative viability is 0.267.

Q: What about the relative viability (NCI-H2085; first compound 0.03162 µM) of the same compound?
A: Its relative viability is 0.241.

Q: What about the relative viability (NCI-H2085; first compound 0.1 µM) of the same compound?
A: The relative viability was 0.253.

Q: What about the relative viability (NCI-H2085; first compound 0.3162 µM) of the same compound?
A: The relative viability was 0.225.

Q: What about the relative viability (NCI-H2085; first compound 1 µM) of the same compound?
A: The relative viability was 0.219.

Q: What about the relative viability (HCC-366; first compound 0.01 µM) of the same compound?
A: Its relative viability is 0.672.

Q: What about the relative viability (HCC-366; first compound 0.03162 µM) of the same compound?
A: Its relative viability is 0.69.

Q: What about the relative viability (HCC-366; first compound 0.1 µM) of the same compound?
A: The relative viability was 0.725.

Q: And the relative viability (HCC-366; first compound 0.3162 µM)?
A: Its relative viability is 0.601.

Q: What about the relative viability (HCC-366; first compound 1 µM) of the same compound?
A: Its relative viability is 0.618.

Q: And the relative viability (LOU-NH91; first compound 0.01 µM)?
A: The relative viability was 0.546.

Q: What about the relative viability (LOU-NH91; first compound 0.03162 µM) of the same compound?
A: The relative viability was 0.55.

Q: And the relative viability (LOU-NH91; first compound 0.1 µM)?
A: Its relative viability is 0.537.

Q: And the relative viability (LOU-NH91; first compound 0.3162 µM)?
A: Its relative viability is 0.584.

Q: And the relative viability (LOU-NH91; first compound 1 µM)?
A: Its relative viability is 0.563.

Q: And the relative viability (NCI-H3122; first compound 0.01 µM)?
A: The relative viability was 0.667.

Q: And the relative viability (NCI-H3122; first compound 0.03162 µM)?
A: The relative viability was 0.836.

Q: What about the relative viability (NCI-H3122; first compound 0.1 µM) of the same compound?
A: Its relative viability is 0.753.

Q: What about the relative viability (NCI-H3122; first compound 0.3162 µM) of the same compound?
A: Its relative viability is 0.764.

Q: And the relative viability (NCI-H3122; first compound 1 µM)?
A: Its relative viability is 0.751.

Q: With CCN(CC)CCCCNc1ncc2cc(-c3cc(OC)cc(OC)c3)c(NC(=O)NC(C)(C)C)nc2n1 + Cc1nc(Nc2ncc(C(=O)Nc3c(C)cccc3Cl)s2)cc(N2CCN(CCO)CC2)n1 [Dasatinib] (partner 0.075 µM) as the compound, how does the relative viability (NCI-H1437; first compound 0.01 µM) read?
A: Its relative viability is 0.366.

Q: And the relative viability (NCI-H1437; first compound 0.03162 µM)?
A: Its relative viability is 0.504.

Q: And the relative viability (NCI-H1437; first compound 0.1 µM)?
A: The relative viability was 0.419.

Q: What about the relative viability (NCI-H1437; first compound 0.3162 µM) of the same compound?
A: Its relative viability is 0.447.

Q: What about the relative viability (NCI-H1437; first compound 1 µM) of the same compound?
A: Its relative viability is 0.335.

Q: What about the relative viability (NCI-H1623; first compound 0.01 µM) of the same compound?
A: The relative viability was 0.504.

Q: And the relative viability (NCI-H1623; first compound 0.03162 µM)?
A: Its relative viability is 0.449.

Q: What about the relative viability (NCI-H1623; first compound 0.1 µM) of the same compound?
A: The relative viability was 0.579.

Q: And the relative viability (NCI-H1623; first compound 0.3162 µM)?
A: Its relative viability is 0.571.

Q: And the relative viability (NCI-H1623; first compound 1 µM)?
A: Its relative viability is 0.516.

Q: What about the relative viability (NCI-H2085; first compound 0.01 µM) of the same compound?
A: The relative viability was 0.251.

Q: And the relative viability (NCI-H2085; first compound 0.03162 µM)?
A: Its relative viability is 0.181.

Q: And the relative viability (NCI-H2085; first compound 0.1 µM)?
A: Its relative viability is 0.278.

Q: And the relative viability (NCI-H2085; first compound 0.3162 µM)?
A: Its relative viability is 0.231.

Q: What about the relative viability (NCI-H2085; first compound 1 µM) of the same compound?
A: Its relative viability is 0.216.

Q: And the relative viability (HCC-366; first compound 0.01 µM)?
A: Its relative viability is 0.601.

Q: What about the relative viability (HCC-366; first compound 0.03162 µM) of the same compound?
A: Its relative viability is 0.686.

Q: And the relative viability (HCC-366; first compound 0.1 µM)?
A: Its relative viability is 0.942.

Q: And the relative viability (HCC-366; first compound 0.3162 µM)?
A: Its relative viability is 0.659.

Q: And the relative viability (HCC-366; first compound 1 µM)?
A: Its relative viability is 0.613.

Q: What about the relative viability (LOU-NH91; first compound 0.01 µM) of the same compound?
A: The relative viability was 0.51.

Q: And the relative viability (LOU-NH91; first compound 0.03162 µM)?
A: Its relative viability is 0.521.

Q: What about the relative viability (LOU-NH91; first compound 0.1 µM) of the same compound?
A: The relative viability was 0.629.

Q: What about the relative viability (LOU-NH91; first compound 0.3162 µM) of the same compound?
A: The relative viability was 0.718.

Q: And the relative viability (LOU-NH91; first compound 1 µM)?
A: The relative viability was 0.57.

Q: And the relative viability (NCI-H3122; first compound 0.01 µM)?
A: The relative viability was 0.876.

Q: What about the relative viability (NCI-H3122; first compound 0.03162 µM) of the same compound?
A: The relative viability was 0.914.

Q: And the relative viability (NCI-H3122; first compound 0.1 µM)?
A: Its relative viability is 0.939.

Q: And the relative viability (NCI-H3122; first compound 0.3162 µM)?
A: The relative viability was 0.954.

Q: What about the relative viability (NCI-H3122; first compound 1 µM) of the same compound?
A: Its relative viability is 0.842.
